Source: patent US12227500B2, “Substituted pyrrolo[2,3-b]pyridines for suppressing toxic endoplasmic reticulum stress” (THE TRUSTEES OF COLUMBIA UNIVERSITY IN THE CITY OF NEW YORK, priority 2018, dated 2025)
Where two headings read alike, the source gives them in different places.

Tests used:
[1] = target: T1, MLK1/MAP3K9 (Homo sapiens, UniProt P80192); assay: Radiolabeled ATP kinase assay (Reaction Biology Corp.), MLK1; assay type: biochemical; conditions: [Cmpd] 0.1 μM, 10 μM ATP
T1 construct: purchased Reaction Biology Corp
T1 sequence (P80192 whole entry): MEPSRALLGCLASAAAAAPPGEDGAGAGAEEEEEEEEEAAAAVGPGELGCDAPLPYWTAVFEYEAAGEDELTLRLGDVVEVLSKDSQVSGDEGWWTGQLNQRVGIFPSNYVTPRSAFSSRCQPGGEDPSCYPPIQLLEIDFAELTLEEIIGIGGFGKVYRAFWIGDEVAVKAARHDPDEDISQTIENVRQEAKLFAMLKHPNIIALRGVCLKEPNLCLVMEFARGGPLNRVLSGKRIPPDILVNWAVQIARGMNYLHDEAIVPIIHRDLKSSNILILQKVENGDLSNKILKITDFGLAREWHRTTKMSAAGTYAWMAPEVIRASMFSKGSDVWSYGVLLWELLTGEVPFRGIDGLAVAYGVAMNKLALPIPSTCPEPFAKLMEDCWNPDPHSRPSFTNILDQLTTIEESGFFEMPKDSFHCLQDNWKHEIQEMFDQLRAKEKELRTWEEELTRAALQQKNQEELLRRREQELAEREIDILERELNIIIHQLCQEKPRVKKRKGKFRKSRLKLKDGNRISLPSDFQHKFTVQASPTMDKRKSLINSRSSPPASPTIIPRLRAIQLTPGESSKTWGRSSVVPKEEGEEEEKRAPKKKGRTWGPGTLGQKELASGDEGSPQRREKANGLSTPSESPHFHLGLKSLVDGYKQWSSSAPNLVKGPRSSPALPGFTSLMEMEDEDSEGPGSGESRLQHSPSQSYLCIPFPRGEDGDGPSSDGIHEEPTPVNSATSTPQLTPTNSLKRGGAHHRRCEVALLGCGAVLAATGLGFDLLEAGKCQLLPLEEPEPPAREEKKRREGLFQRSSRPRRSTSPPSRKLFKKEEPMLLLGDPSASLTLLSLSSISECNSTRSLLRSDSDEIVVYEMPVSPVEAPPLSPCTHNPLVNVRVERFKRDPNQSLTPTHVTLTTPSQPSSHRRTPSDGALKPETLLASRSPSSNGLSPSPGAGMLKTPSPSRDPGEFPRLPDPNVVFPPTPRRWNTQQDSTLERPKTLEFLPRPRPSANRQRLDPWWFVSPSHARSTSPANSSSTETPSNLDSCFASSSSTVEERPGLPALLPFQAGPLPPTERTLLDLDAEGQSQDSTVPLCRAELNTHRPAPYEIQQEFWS
Procedure: (§1) Meanwhile, the same analogs were analyzed in a radiolabeled ATP assay (10 μM ATP; Reaction Biology Corp.) to compare the extent to which they could inhibit the activity of HGK, MLK1, or MLK3 in a cell-free environment (Table S3 and S4).

[2] = target: T2, MLK3/MAP3K11 (Homo sapiens, UniProt Q16584); assay: Radiolabeled ATP kinase assay (Reaction Biology Corp.), MLK3; assay type: biochemical; conditions: [Cmpd] 0.1 μM; 10 μM ATP
T2 construct: purchased Reaction Biology Corp
T2 sequence (Q16584 whole entry): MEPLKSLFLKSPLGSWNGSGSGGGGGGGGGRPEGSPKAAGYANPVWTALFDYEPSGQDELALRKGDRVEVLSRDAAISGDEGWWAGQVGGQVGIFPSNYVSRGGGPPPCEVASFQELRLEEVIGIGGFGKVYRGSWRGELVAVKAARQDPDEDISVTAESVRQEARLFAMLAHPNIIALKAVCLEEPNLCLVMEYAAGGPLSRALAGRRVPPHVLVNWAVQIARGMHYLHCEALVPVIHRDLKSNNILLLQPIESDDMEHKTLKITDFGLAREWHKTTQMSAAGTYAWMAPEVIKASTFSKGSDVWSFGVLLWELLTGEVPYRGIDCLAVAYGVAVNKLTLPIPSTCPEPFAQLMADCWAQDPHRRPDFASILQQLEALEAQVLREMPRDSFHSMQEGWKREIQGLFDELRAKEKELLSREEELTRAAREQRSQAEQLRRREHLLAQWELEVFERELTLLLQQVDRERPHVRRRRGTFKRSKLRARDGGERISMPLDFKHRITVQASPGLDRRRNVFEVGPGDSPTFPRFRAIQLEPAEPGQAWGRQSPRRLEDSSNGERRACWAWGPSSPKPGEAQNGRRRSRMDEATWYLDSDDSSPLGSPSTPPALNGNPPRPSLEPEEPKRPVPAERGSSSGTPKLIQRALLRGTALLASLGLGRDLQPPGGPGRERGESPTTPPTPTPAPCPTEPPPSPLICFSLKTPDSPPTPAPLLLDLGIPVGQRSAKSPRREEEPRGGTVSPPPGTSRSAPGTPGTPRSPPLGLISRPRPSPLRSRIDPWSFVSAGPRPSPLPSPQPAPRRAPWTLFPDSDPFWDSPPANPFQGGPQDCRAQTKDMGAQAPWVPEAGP
Procedure: as §1

[3] = target: HGK/MAP4K4 (Homo sapiens, UniProt O95819); assay: Radiolabeled ATP kinase assay (Reaction Biology Corp.), HGK; assay type: biochemical; parameters: purchased Reaction Biology Corp; conditions: 10 μM ATP, read-out: % Enzyme Activity (relative to DMSO controls), HGK/MAP4K4, Data 1; for remaining activity at 0.025 µM: [Cmpd] 0.025 μM; for remaining activity at 0.1 µM: [Cmpd] 0.1 μM
HGK/MAP4K4, sequence (O95819 whole entry): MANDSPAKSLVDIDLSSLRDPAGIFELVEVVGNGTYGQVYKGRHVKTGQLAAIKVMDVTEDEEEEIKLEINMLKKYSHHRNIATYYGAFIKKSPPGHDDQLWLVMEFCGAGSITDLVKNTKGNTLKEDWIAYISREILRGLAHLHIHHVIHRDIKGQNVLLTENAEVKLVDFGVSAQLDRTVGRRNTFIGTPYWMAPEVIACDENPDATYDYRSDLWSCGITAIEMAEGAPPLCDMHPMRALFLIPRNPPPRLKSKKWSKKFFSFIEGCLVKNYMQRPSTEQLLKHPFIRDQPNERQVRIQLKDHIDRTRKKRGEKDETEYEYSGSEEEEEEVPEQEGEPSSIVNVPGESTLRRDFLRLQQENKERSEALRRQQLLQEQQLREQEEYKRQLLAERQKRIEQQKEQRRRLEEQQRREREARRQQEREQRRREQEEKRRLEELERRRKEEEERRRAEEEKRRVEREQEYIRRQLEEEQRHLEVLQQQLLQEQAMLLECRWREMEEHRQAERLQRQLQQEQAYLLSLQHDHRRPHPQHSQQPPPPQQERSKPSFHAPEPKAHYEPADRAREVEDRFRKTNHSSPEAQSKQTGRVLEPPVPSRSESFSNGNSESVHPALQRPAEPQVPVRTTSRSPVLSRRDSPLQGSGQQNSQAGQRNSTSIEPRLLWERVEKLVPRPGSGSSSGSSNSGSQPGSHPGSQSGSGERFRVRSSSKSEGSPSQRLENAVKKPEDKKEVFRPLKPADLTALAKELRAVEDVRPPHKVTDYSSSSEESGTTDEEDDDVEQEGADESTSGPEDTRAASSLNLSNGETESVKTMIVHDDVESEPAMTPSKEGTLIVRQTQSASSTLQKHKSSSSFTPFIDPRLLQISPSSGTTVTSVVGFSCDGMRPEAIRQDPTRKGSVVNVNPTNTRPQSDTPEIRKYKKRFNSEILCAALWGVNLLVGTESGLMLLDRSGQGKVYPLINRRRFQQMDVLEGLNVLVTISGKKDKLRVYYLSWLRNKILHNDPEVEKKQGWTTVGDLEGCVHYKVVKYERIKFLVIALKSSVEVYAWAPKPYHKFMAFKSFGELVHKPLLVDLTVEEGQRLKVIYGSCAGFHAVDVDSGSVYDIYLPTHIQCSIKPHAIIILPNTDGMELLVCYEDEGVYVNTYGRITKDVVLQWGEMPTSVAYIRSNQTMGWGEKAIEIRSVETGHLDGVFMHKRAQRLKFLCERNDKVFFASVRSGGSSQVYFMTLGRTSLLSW
Procedure: as §1

[4] = system: human ES motor neurons carrying the ALS-causing SOD1^A4V mutation; assay: cells; assay type: cell-based; conditions: for EC50 / viability at 1 µM / Emax: Homo sapiens, Neuron, 72 h; for EC50 / Emax: CPA 33 μM; for EC50: read-out: EC50; for viability at 1 µM: CPA (33 μM) + compound (1 μM), read-out: Motor Neuron Survival, % untreated; for Emax: read-out: Emax (MN survival % untreated)
Procedure: Next, survival assays were performed with all the analogs at once to generate a low-variability dataset. All compounds were evaluated at concentrations ranging from 0.1-3.0 μM (five-point dilution) in three technical replicates and two biological replicates.

[5] = read-out: % Enzyme Activity Remaining (relative to DMSO controls), MLK1/MAP3K9, Data 1
[6] = read-out: % Enzyme Activity Remaining (relative to DMSO controls), MLK1/MAP3K9, Data 2

Compound | remaining activity at 0.1 µM [1, 5] [%] | remaining activity at 0.1 µM [1, 6] [%] | % Enzyme Activity Remaining (relative to DMSO controls), MLK3/MAP3K11, Data 1 [2] [%] | % Enzyme Activity Remaining (relative to DMSO controls), MLK3/MAP3K11, Data 2 [2] [%] | remaining activity at 0.025 µM [3] [%] | remaining activity at 0.1 µM [3] [%] | EC50 [4] [nM] | viability at 1 µM [4] [%] | Emax [4] [%] | rescue of MNs in the CPA survival assay ([4]; FIG. 9)
CN1CCN(Cc2ccc(-c3cnc4[nH]cc(-c5cc6ccccc6[nH]5)c4c3)cc2)CC1 [Compound 7a, 3-(1H-Indol-2-yl)-5-(4-((4-methylpiperazin-1-yl)methyl)phenyl)-1H-pyrrolo[2,3-b]pyridine] | 74.2 | 75.1 | 63.66 | 64.82 | 86.1 | 58.8 | – | – | – | –
CN1CCN(Cc2ccc(-c3cnc4[nH]cc(-c5cc(C(F)(F)F)cc(C(F)(F)F)c5)c4c3)cc2)CC1 [Compound 7aj, 3-(3,5-Bis(trifluoromethyl)phenyl)-5-(4-((4-methylpiperazin-1-yl)methyl)phenyl)-1H-pyrrolo[2,3-b]pyridine] | 96.4 | 92.6 | 95.75 | 93.75 | 103 | 86.6 | – | – | – | –
COc1cc(-c2c[nH]c3ncc(-c4ccc(CN5CCN(C)CC5)cc4)cc23)cc(OC)c1OC [Compound 7ap, 5-(4-((4-Methylpiperazin-1-yl)methyl)phenyl)-3-(3,4,5-trimethoxyphenyl)-1H-pyrrolo[2,3-b]pyridine] | 54.2 | 52.8 | 70.05 | 68.91 | 35.6 | 6.76 | – | – | – | –
COc1ccc(-c2c[nH]c3ncc(-c4ccc(CN5CCN(C)CC5)cc4)cc23)cc1C [Compound 7aq, 3-(4-Methoxy-3-methylphenyl)-5-(4-((4-methylpiperazin-1-yl)methyl)phenyl)-1H-pyrrolo[2,3-b]pyridine] | 54.5 | 53.6 | 51.92 | 49.61 | 57.3 | 20 | – | – | – | –
CN1CCN(Cc2ccc(-c3cnc4[nH]cc(-c5cc6ccccc6s5)c4c3)cc2)CC1 [Compound 7g, 3-(Benzo[b]thiophen-2-yl)-5-(4-((4-methylpiperazin-1-yl)methyl)phenyl)-1H-pyrrolo[2,3-b]pyridine] | 55.9 | 58.5 | 45.87 | 42.66 | – | – | – | – | – | –
CN1CCN(Cc2ccc(-c3cnc4[nH]cc(-c5cccc(C(=O)O)c5)c4c3)cc2)CC1 [Compound 7j, 3-(5-(4-((4-Methylpiperazin-1-yl)methyl)phenyl)-1H-pyrrolo[2,3-b]pyridin-3-yl)benzoic acid] | 77.7 | 77.5 | 46.91 | 44.55 | 63.6 | 20.6 | – | – | – | –
CC(C)Oc1ccc(-c2c[nH]c3ncc(-c4ccc(CN5CCN(C)CC5)cc4)cc23)cc1 [Compound 7q, 3-(4-Isopropoxyphenyl)-5-(4-((4-methylpiperazin-1-yl)methyl)phenyl)-1H-pyrrolo[2,3-b]pyridine] | 94.1 | 95.4 | 91.91 | 89.69 | – | – | 740 | 20.6 | 21.5 | –
CN1CCN(Cc2ccc(-c3cnc4[nH]cc(-c5cccc(O)c5)c4c3)cc2)CC1 [Compound 7r, 3-(5-(4-((4-Methylpiperazin-1-yl)methyl)phenyl)-1H-pyrrolo[2,3-b]pyridin-3-yl)phenol] | 56.2 | 58.6 | 38.87 | 39.87 | 4.88 | 1.23 | – | – | – | –
Cc1ccc(S(=O)(=O)n2cc(-c3ccc4[nH]ccc4c3)c3cc(-c4ccc(C=O)cc4)cnc32)cc1 [Compound 11, 4-(3-(1H-Indol-5-yl)-1-tosyl-1H-pyrrolo[2,3-b]pyridin-5-yl)benzaldehyde] | 95 | 95.5 | 93.68 | 88.60 | 102 | 85.5 | – | – | – | –
c1cc2cc(-c3c[nH]c4ncc(-c5ccc(CN6CC7CCC(C6)O7)cc5)cc34)ccc2[nH]1 [Compound 12a, 3-(4-(3-(1H-Indol-5-yl)-1H-pyrrolo[2,3-b]pyridin-5-yl)benzyl)-8-oxa-3-azabicyclo[3.2.1]octane] | 56.2 | 46.5 | 52.18 | 46.74 | 72.8 | 51.5 | – | – | – | –
CN1C2CCC1CN(Cc1ccc(-c3cnc4[nH]cc(-c5ccc6[nH]ccc6c5)c4c3)cc1)C2 [Compound 12b, 3-(1H-Indol-5-yl)-5-(4-((8-methyl-3,8-diazabicyclo[3.2.1]octan-3-yl)methyl)phenyl)-1H-pyrrolo[2,3-b]pyridine] | – | – | – | – | 69 | 34.5 | 1960 | 25.2 | 72.6 | –
CN1CC2CCC(C1)N2Cc1ccc(-c2cnc3[nH]cc(-c4ccc5[nH]ccc5c4)c3c2)cc1 [Compound 12c, 3-(1H-Indol-5-yl)-5-(4-((3-methyl-3,8-diazabicyclo[3.2.1]octan-8-yl)methyl)phenyl)-1H-pyrrolo[2,3-b]pyridine] | – | – | – | – | 92.7 | 84.2 | 694 | 43.7 | 43.7 | –
CN1C2CCC1CN(Cc1ccc(-c3cnc4[nH]cc(-c5cccc6[nH]ncc56)c4c3)cc1)C2 [Compound 12d, 4-(5-(4-((8-Methyl-3,8-diazabicyclo[3.2.1]octan-3-yl)methyl)phenyl)-1H-pyrrolo[2,3-b]pyridin-3-yl)-1H-indazole] | – | – | – | – | 3.17 | -0.29 | 301 | 109 | 143 | –
Fc1cccc(-c2c[nH]c3ncc(-c4ccc(CN5CCC(N6CCCCC6)CC5)cc4)cc23)c1 [Compound 12g, 5-(4-([1,4′-Bipiperidin]-1′-ylmethyl)phenyl)-3-(3-fluorophenyl)-1H-pyrrolo[2,3-b]pyridine] | – | – | – | – | – | – | 50 | – | 89.3 | –
CC(C)(C)N1CCN(Cc2ccc(-c3cnc4[nH]cc(-c5cccc(F)c5)c4c3)cc2)CC1 [Compound 12j, 5-(4-((4-(tert-Butyl)piperazin-1-yl)methyl)phenyl)-3-(3-fluorophenyl)-1H-pyrrolo[2,3-b]pyridine] | – | – | – | – | – | – | 50 | – | 98.5 | –
NG-25 [reference compound] | – | – | – | – | – | – | – | – | – | unable to rescue MNs
